From article PMC3016878 (Chembiochem : a European journal of chemical biology, 2010)

Target: AAC(3)-IV; AAC(3) (Escherichia coli, UniProt Q306W4)
Experiment: UV-vis acetyltransferase assay, Michaelis-Menten
Format: biochemical
Details: co-substrate apramycin

CC(=O)SCCNC(=O)CCNC(=O)[C@H](O)C(C)(C)COP(=O)(O)OP(=O)(O)OC[C@H]1O[C@@H](n2cnc3c(N)ncnc32)[C@H](O)[C@@H]1OP(=O)(O)O [AcCoA]
KM: Michaelis-Menten plot for modification of apramycin by AcCoA and AzAcCoA
